According to patent publication US8258114B2, “Modulation of glucose-6-phosphatase translocase expression” (Isis Pharmaceuticals, Inc., priority 2004, dated 2012):
Oligonucleotides are written 5' to 3', each unit as a sugar letter and its base; * is a phosphorothioate linkage, no mark a phosphodiester; rarer units and linkages stand in square brackets, end groups in braces. Plain capitals give the bases only. e = 2'-O-(2-methoxyethyl) (MOE); [5mC] = 5-methylcytosine; d = 2'-deoxy (DNA)

Test system: human glucose-6-phosphatase translocase mRNA
Assay: Antisense inhibition of human glucose-6-phosphatase translocase mRNA in HepG2 cells (Table 11)
Assay type: cell-based
Design: concentration or dose not given beside the values
Details: LIPOFECTIN, mRNA by real-time PCR
Experimental: The human hepatoblastoma cell line HepG2 was obtained from the American Type Culture Collection (Manassas, Va.). HepG2 cells were routinely cultured in Eagle's MEM supplemented with 10% fetal bovine serum, 1 mM non-essential amino acids, and 1 mM sodium pyruvate (Invitrogen Life Technologies, Carlsbad, Calif.). Cells were routinely passaged by trypsinization and dilution when they reached approximately 90% confluence. Multiwell culture plates are prepared for cell culture by coating with a 1:100 dilution of type 1 rat tail collagen (BD Biosciences, Bedford, Mass.) in phosphate-buffered saline. The collagen-containing plates were incubated at 37° C. for approximately 1 hour, after which the collagen was removed and the wells were washed twice with phosphate-buffered saline. Cells were seeded into 96-well plates (Falcon-Primaria #353872, BD Biosciences, Bedford, Mass.) at a density of approximately 8,000 cells/well for use in oligomeric compound transfection experiments.
When cells reached 65-75% confluency, they were treated with oligonucleotide. Oligonucleotide was mixed with LIPOFECTIN™ Invitrogen Life Technologies, Carlsbad, Calif.) in Opti-MEM™-1 reduced serum medium (Invitrogen Life Technologies, Carlsbad, Calif.) to achieve the desired concentration of oligonucleotide and a LIPOFECTIN™ concentration of 2.5 or 3 μg/mL per 100 nM oligonucleotide. This transfection mixture was incubated at room temperature for approximately 0.5 hours. For cells grown in 96-well plates, wells were washed once with 100 μL OPTI-MEM™-1 and then treated with 130 μL of the transfection mixture. Cells grown in 24-well plates or other standard tissue culture plates are treated similarly, using appropriate volumes of medium and oligonucleotide. Cells are treated and data are obtained in duplicate or triplicate. After approximately 4-7 hours of treatment at 37° C., the medium containing the transfection mixture was replaced with fresh culture medium. Cells were harvested 16-24 hours after oligonucleotide treatment.
(§1) Quantitation of glucose 6-phosphatase translocase mRNA levels was accomplished by real-time quantitative PCR using the ABI PRISM™ 7600, 7700, or 7900 Sequence Detection System (PE-Applied Biosystems, Foster City, Calif.) according to manufacturer's instructions.
(§2) Prior to quantitative PCR analysis, primer-probe sets specific to the target gene being measured were evaluated for their ability to be “multiplexed” with a GAPDH amplification reaction. After isolation the RNA is subjected to sequential reverse transcriptase (RT) reaction and real-time PCR, both of which are performed in the same well. RT and PCR reagents were obtained from Invitrogen Life Technologies (Carlsbad, Calif.). […] The RT reaction was carried out by incubation for 30 minutes at 48° C. Following a 10 minute incubation at 95° C. to activate the PLATINUM® Taq, 40 cycles of a two-step PCR protocol were carried out: 95° C. for 15 seconds (denaturation) followed by 60° C. for 1.5 minutes (annealing/extension).
(§3) Gene target quantities obtained by RT, real-time PCR were normalized using either the expression level of GAPDH, a gene whose expression is constant, or by quantifying total RNA using RiboGreen™ (Molecular Probes, Inc. Eugene, Oreg.). GAPDH expression was quantified by RT, real-time PCR, by being run simultaneously with the target, multiplexing, or separately. Total RNA was quantified using RiboGreen™ RNA quantification reagent (Molecular Probes, Inc. Eugene, Oreg.).
A series of oligomeric compounds was designed to target different regions of human glucose-6-phosphatase translocase, using published sequences cited in Table 1. All compounds in Table 4 are chimeric oligonucleotides (“gapmers”) 20 nucleotides in length, composed of a central “gap” region consisting of 10 2′-deoxynucleotides, which is flanked on both sides (5′ and 3′) by five-nucleotide “wings”. The wings are composed of 2′-O-(2-methoxyethyl) nucleotides, also known as 2′-MOE nucleotides. […]

Sequence | % Inhib [%]
ACAACCACACACAGTGCCCC (eA*e[5mC]*eA*eA*e[5mC]*d[5mC]*dA*d[5mC]*dA*d[5mC]*dA*d[5mC]*dA*dG*dT*eG*e[5mC]*e[5mC]*e[5mC]*e[5mC]; antisense) [ISIS 359519] | 53
ACAGCTCCCAATACCAGGAT (eA*e[5mC]*eA*eG*e[5mC]*dT*d[5mC]*d[5mC]*d[5mC]*dA*dA*dT*dA*d[5mC]*d[5mC]*eA*eG*eG*eA*eT; antisense) [ISIS 359537] | 93
ACATCAGCAGGTTCATTGTG (eA*e[5mC]*eA*eT*e[5mC]*dA*dG*d[5mC]*dA*dG*dG*dT*dT*d[5mC]*dA*eT*eT*eG*eT*eG; antisense) [ISIS 359523] | 43
ACCAAGTGCCAAACTGAGAT (eA*e[5mC]*e[5mC]*eA*eA*dG*dT*dG*d[5mC]*d[5mC]*dA*dA*dA*d[5mC]*dT*eG*eA*eG*eA*eT; antisense) [ISIS 359509] | 24
ACTCGGCCCATCTTGGTGCG (eA*e[5mC]*eT*e[5mC]*eG*dG*d[5mC]*d[5mC]*d[5mC]*dA*dT*d[5mC]*dT*dT*dG*eG*eT*eG*e[5mC]*eG; antisense) [ISIS 359548] | 96
AGAGGAAGGAGACAACCACA (eA*eG*eA*eG*eG*dA*dA*dG*dG*dA*dG*dA*d[5mC]*dA*dA*e[5mC]*e[5mC]*eA*e[5mC]*eA; antisense) [ISIS 359521] | 32
AGCAGGTTCATTGTGGATGA (eA*eG*e[5mC]*eA*eG*dG*dT*dT*d[5mC]*dA*dT*dT*dG*dT*dG*eG*eA*eT*eG*eA; antisense) [ISIS 359522] | 91
AGCCAGGTTCATGCTGGTTG (eA*eG*e[5mC]*e[5mC]*eA*dG*dG*dT*dT*d[5mC]*dA*dT*dG*d[5mC]*dT*eG*eG*eT*eT*eG; antisense) [ISIS 359513] | 62
ATGGCCCACCAAGTGCCAAA (eA*eT*eG*eG*e[5mC]*d[5mC]*d[5mC]*dA*d[5mC]*d[5mC]*dA*dA*dG*dT*dG*e[5mC]*e[5mC]*eA*eA*eA; antisense) [ISIS 359510] | 38
CAAATACAGCTCCCAATACC (e[5mC]*eA*eA*eA*eT*dA*d[5mC]*dA*dG*d[5mC]*dT*d[5mC]*d[5mC]*d[5mC]*dA*eA*eT*eA*e[5mC]*e[5mC]; antisense) [ISIS 359538] | 29
CAAGGAGCCCTTCTTGCCCT (e[5mC]*eA*eA*eG*eG*dA*dG*d[5mC]*d[5mC]*d[5mC]*dT*dT*d[5mC]*dT*dT*eG*e[5mC]*e[5mC]*e[5mC]*eT; antisense) [ISIS 359524] | 56
CAGGCCAACCAGGAGCAGCC (e[5mC]*eA*eG*eG*e[5mC]*d[5mC]*dA*dA*d[5mC]*d[5mC]*dA*dG*dG*dA*dG*e[5mC]*eA*eG*e[5mC]*e[5mC]; antisense) [ISIS 359508] | 68
CATGCTGGTTGACAGGATGG (e[5mC]*eA*eT*eG*e[5mC]*dT*dG*dG*dT*dT*dG*dA*d[5mC]*dA*dG*eG*eA*eT*eG*eG; antisense) [ISIS 359512] | 43
CCAACCAGGAGCAGCCCAGA (e[5mC]*e[5mC]*eA*eA*e[5mC]*d[5mC]*dA*dG*dG*dA*dG*d[5mC]*dA*dG*d[5mC]*e[5mC]*e[5mC]*eA*eG*eA; antisense) [ISIS 359507] | 49
CCAGCCCTCCAGCCAGGTTC (e[5mC]*e[5mC]*eA*eG*e[5mC]*d[5mC]*d[5mC]*dT*d[5mC]*d[5mC]*dA*dG*d[5mC]*d[5mC]*dA*eG*eG*eT*eT*e[5mC]; antisense) [ISIS 359516] | 69
CCAGCGTGCTGCGCCAGCTG (e[5mC]*e[5mC]*eA*eG*e[5mC]*dG*dT*dG*d[5mC]*dT*dG*d[5mC]*dG*d[5mC]*d[5mC]*eA*eG*e[5mC]*eT*eG; antisense) [ISIS 359518] | 47
CCAGGAGCAGCCCAGAAGAG (e[5mC]*e[5mC]*eA*eG*eG*dA*dG*d[5mC]*dA*dG*d[5mC]*d[5mC]*d[5mC]*dA*dG*eA*eA*eG*eA*eG; antisense) [ISIS 359506] | 58
CCATACGAGGAGAAACCAAA (e[5mC]*e[5mC]*eA*eT*eA*d[5mC]*dG*dA*dG*dG*dA*dG*dA*dA*dA*e[5mC]*e[5mC]*eA*eA*eA; antisense) [ISIS 359542] | 46
CCATCTTGGTGCGGATGTTT (e[5mC]*e[5mC]*eA*eT*e[5mC]*dT*dT*dG*dG*dT*dG*d[5mC]*dG*dG*dA*eT*eG*eT*eT*eT; antisense) [ISIS 359547] | 91
CCCTCCAGCCAGGTTCATGC (e[5mC]*e[5mC]*e[5mC]*eT*e[5mC]*d[5mC]*dA*dG*d[5mC]*d[5mC]*dA*dG*dG*dT*dT*e[5mC]*eA*eT*eG*e[5mC]; antisense) [ISIS 359515] | 62

Test system: mouse glucose-6-phosphatase translocase mRNA
Assay: Antisense inhibition of mouse glucose-6-phosphatase translocase mRNA in primary mouse hepatocytes, 50 nM (Table 5)
Assay type: cell-based
Details: 50 nM oligonucleotide, mRNA by real-time PCR, normalized with RIBOGREEN
Experimental: Primary mouse hepatocytes were prepared from CD-1 mice purchased from Charles River Labs. Primary mouse hepatocytes were routinely cultured in Hepatocyte Attachment Media supplemented with 10% fetal bovine serum (Invitrogen Life Technologies, Carlsbad, Calif.), 250 nM dexamethasone, and 10 nM bovine insulin (Sigma-Aldrich, St. Louis, Mo.). Cells were seeded into 96-well plates (Falcon-Primaria #353872, BD Biosciences, Bedford, Mass.) at a density of approximately 4,000-6,000 cells/well for use in oligomeric compound transfection experiments.
as §1, §2, §3
A series of oligomeric compounds was designed to target different regions of mouse glucose-6-phosphatase translocase, using published sequences cited in Table 1. All compounds in Table 5 are chimeric oligonucleotides (“gapmers”) 20 nucleotides in length, composed of a central “gap” region consisting of 10 2′-deoxynucleotides, which is flanked on both sides (5′ and 3′) by five-nucleotide “wings”. The wings are composed of 2′-O-(2-methoxyethyl) nucleotides, also known as 2′-MOE nucleotides. The internucleoside (backbone) linkages are phosphorothioate throughout the oligonucleotide. All cytidine residues are 5-methylcytidines. The compounds were analyzed for their effect on gene target mRNA levels by quantitative real-time PCR as described in other examples herein, using the following primer-probe set designed to hybridize to mouse glucose-6-phosphatase translocase: • forward primer: […] (SEQ ID NO: 66) • reverse primer: CCATCCCAGCCATCATGAG (SEQ ID NO: 67) and the PCR probe was: FAM-[…]-TAMRA (SEQ ID NO: 68) where FAM is the fluorescent reporter dye and TAMRA is the quencher dye. Mouse target gene quantities were normalized by quantifying total RNA using RIBOGREEN™.
Data are from experiments in which primary mouse hepatocytes were treated with 50 nM of the antisense oligonucleotides of the present invention. A reduction in expression is expressed as percent inhibition in Table 5. If present, “N.D.” indicates “not determined”. The target regions to which these oligomeric compounds are inhibitory are herein referred to as “validated target segments.”

Sequence | % Inhib [%]
TCATGCTGGTTGACAACACA (eT*e[5mC]*eA*eT*eG*d[5mC]*dT*dG*dG*dT*dT*dG*dA*d[5mC]*dA*eA*e[5mC]*eA*e[5mC]*eA; antisense) [ISIS 148955] | 36
TCCTCTCCTCCCTTAGGGAC (eT*e[5mC]*e[5mC]*eT*e[5mC]*dT*d[5mC]*d[5mC]*dT*d[5mC]*d[5mC]*d[5mC]*dT*dT*dA*eG*eG*eG*eA*e[5mC]; antisense) [ISIS 149004] | 42
TCGTCCTTGTCCAGAGCGAT (eT*e[5mC]*eG*eT*e[5mC]*d[5mC]*dT*dT*dG*dT*d[5mC]*d[5mC]*dA*dG*dA*eG*e[5mC]*eG*eA*eT; antisense) [ISIS 148946] | 70
TCTCTTTAGTGCCTGGATCT (eT*e[5mC]*eT*e[5mC]*eT*dT*dT*dA*dG*dT*dG*d[5mC]*d[5mC]*dT*dG*eG*eA*eT*e[5mC]*eT; antisense) [ISIS 148937] | 52
TGCCTGGATCTGCTGAGCTG (eT*eG*e[5mC]*e[5mC]*eT*dG*dG*dA*dT*d[5mC]*dT*dG*d[5mC]*dT*dG*eA*eG*e[5mC]*eT*eG; antisense) [ISIS 148936] | 39
TGTGCTCCAGCTATAGTGCT (eT*eG*eT*eG*e[5mC]*dT*d[5mC]*d[5mC]*dA*dG*d[5mC]*dT*dA*dT*dA*eG*eT*eG*e[5mC]*eT; antisense) [ISIS 148981] | 59
